Where “and” joins values, the source holds several entries; their conditions need not be identical. Equal values may be shown once.
Legend:
[1] = tested on: asthma-induced animal model (OVA); assay: Anti-asthma activity in OVA-sensitized/challenged mouse model; format: in vivo, BALB/c mice; conditions: OVA asthma mice
Procedure: In order to determine the anti-asthma activity of test sample in asthma-induced animal model, following test was performed by the method disclosed in the literature (Shin, I. S. et al., Food Chem. Toxicol., 2013, 62, 506-513)
Specific pathogen-free female BALB/c mice (about 20 g), aged 6 weeks, which were routinely screened serologically for relevant respiratory pathogens, were purchased from Samtako Co. (Seoul, Korea) and acclimated with the experimental environment under the condition controlling the temperature of 22±2° C., and relative humidity of 55±15%, at light/dark cycle for 1 week prior to experiment.
Briefly, mice were sensitized by intraperitoneal injection of 20 μg OVA (Ovalbumin; A5503, Sigma, St. Louis, Mo.), which was emulsified in 2 mg aluminum hydroxide (A8222, Sigma-Aldrich, MO. USA) in 200 μl of PBS buffer (pH 7.4), biweekly. The mice were challenged through the airways with OVA (1% in PBS) for 30 min using an ultrasonic nebulizer (NE-U12; Omron Corp., Tokyo, Japan) from the 21st day to 23rd day after the initial sensitization. 24 hrs after the antigen treatment, the airway hyperresponsiveness was determined and the mice were sacrificed 48 hrs after the last challenge. The mice were sacrificed with an overdose of pentobarbital (50 mg/kg, Entobal®, Hanil, Korea) 48 h after the last challenge, and a tracheotomy was performed. After 1.4 ml of physiological saline solution (PBS) was instilled into the lungs, bronchoalveolar lavage fluid (BALF) was obtained by aspiration three times via tracheal cannulation.
The groups were divided into several groups, i.e., (a) normal control group(NC): the groups treated or not-treated with OVA; (b) asthma-induced group(OVA): the groups treated with OVA to induce asthma; and (c) comparative group: the groups treated with positive control group (M30, montelukast; 30 mg/kg, PO, Sigma-Aldrich Co. Ltd., SML-0101+OVA) and (d) test sample group: the groups treated with KS534 compound (30 mg/kg, PO, Sigma-Aldrich Co. Ltd., SML-0101+OVA).
The test group consists of 7 mice for each group and various concentrations of the test sample were orally administrated to the mice from 21st to 23rd day after ^1st OVA treatment.
All the result obtained from various experiments was recorded as mean±SD (standard deviation), and the comparison between each group was determined using by one-way ANOVA test using by SPSS 10.0 program. The statistic significance between each group was determined according to Dunnett's multiple comparison tests as a post-hoc test). The result was expressed as P values: <0.05 (*) as statistically significant. […]
BALF was loaded onto a slide and centrifuged to fix the cells onto the slide using a Cellspin machine (Cyto12.5+clip5, Hanil Science Industrial, Korea). The cells were stained by Diff-Quick® Stain reagents (Sysmex, Cat No. 38721, Switzerland) according to the manufacturer's instructions and the number of inflammatory cells in each sample was counted by microscope (×400).
In order to confirm the inhibition effect of test samples on the level of Th2 cytokines (IL-4, IL-5 and IL-13) in bronchoalveolar lavage fluid (BALF), the level of Th2 cytokines (IL-4, IL-5 and IL-13) in bronchoalveolar lavage fluid (BALF) was determined using by ELISA kit (VersaMax, Molecular Devices, USA) specifically reacting with each cytokine according to the manufacture's manual. […]

MUC5AC = assay: Inhibition of TNF-alpha induced MUC5AC mRNA expression in H292 cells (qRT-PCR); format: cell-based, human; conditions: TNF-α 20 ng/ml
Procedure: In order to determine the inhibitory effect on the expression of MUC5AC induced by TNF-alpha in H292 cell line, following test was performed:
The isolation of total RNA, cDNA synthesis and quantitative real-time PCR were performed by the method disclosed in the literature (Kim et al., J. Cell. Biochem. 2008, 104, 1906-1917).
In summary, total RNA was isolated using by TRIzol reagent (155596-026, Life Technologies) and the first strand cDNA was synthesized using by enzyme (Omniscript Reverse Transcriptase, 205113, Qiagen, Calif.). The quantitative real-time PCR amplification was performed using by apparatus 1 (S1000 Thermal cycler, Bio-rad, USA) and apparatus 2 (2× Greenstar master mix, Bioneer, Korea) according to the manufacture's manual.
Specifically, the reproduced amount of TNF-alpha induced MUC5AC was determined by Real-time polymerase chain reaction (real-time PCR), quantitative real time polymerase chain reaction (qPCR) and MUC5AC immunoassay. H292 cells were inoculated into 48 well plates in a concentration of 2×10^4 cells/well to adhere for 24 hours and the culture medium was replaced with new 0.1% FBS containing medium to culture for 24 hours. […]
In order to extract total RNA, RNA was extracted using by Trizol B (Invitrogen) and cDNA was synthesized using by Omniscript RT kit (Qiagen, GmbH, Hilden, Germany) after the quantification.

Compound: O=C(CO)O[C@@H]1O[C@@H]2C[C@H]3[C@H](OC(=O)c4ccc(O)c(O)c4)[C@@H](Cl)[C@@](O)(CO2)[C@@H]13 [KS-534, (3R,5S,5aS,6R,7S,8R,8aS)-8-chloro-8a-hydroxy-5-(2-hydroxyacetoxy) hexahydro-1H-3,6-methanocyclopenta[e][1,3]dioxepin-7-yl3,4-dihydroxybenzoate]
- level of Th2 cytokines (IL-4, IL-5 and IL-13) in BALF ([1]; 30 mg/kg PO, ELISA, vs OVA group (FIG. 6)): significantly reduced
- level of IgE and OVA-specific IgE in blood serum ([1]; 30 mg/kg PO, ELISA, vs OVA group (FIG. 7)): significantly reduced
- invasion of the inflamed cells in lung tissue (H&E histology) ([1]; 30 mg/kg PO, vs OVA group (FIG. 8)): significantly reduced
- mucosal secretion from the goblet cell of bronchial epithelial cells in lung tissue (PAS) ([1]; 30 mg/kg PO, vs OVA group (FIG. 9)): significantly reduced
- total number of eosinophil and inflammatory cells in BALF ([1]; oral, vs OVA group (FIG. 5)): effectively inhibited
- Expressed level of MUC5AC mRNA (Relative % comparing with that in TNF-alpha treatment group) (MUC5AC; 10 μM): 58.47% and 58.47 ± 18.50%
- Inhibitory ratio (%) of MUC5AC mRNA expression (MUC5AC; 10 μm): 41.52%

From patent US20170217982A1, “Compound isolated from Pseudolysimachion rotundum var. subintegrum, the composition comprising the same for treating allergic disease, inflammatory disease, asthma or chronic obstructive pulmonary disease and the use thereof” (YUNGJIN PHARMACEUTICAL CO., LTD, priority 2014, published 2017)
